T1: Solute carrier family 22 member 2 (Mus musculus, UniProt O70577)
T1 sequence (O70577 whole entry): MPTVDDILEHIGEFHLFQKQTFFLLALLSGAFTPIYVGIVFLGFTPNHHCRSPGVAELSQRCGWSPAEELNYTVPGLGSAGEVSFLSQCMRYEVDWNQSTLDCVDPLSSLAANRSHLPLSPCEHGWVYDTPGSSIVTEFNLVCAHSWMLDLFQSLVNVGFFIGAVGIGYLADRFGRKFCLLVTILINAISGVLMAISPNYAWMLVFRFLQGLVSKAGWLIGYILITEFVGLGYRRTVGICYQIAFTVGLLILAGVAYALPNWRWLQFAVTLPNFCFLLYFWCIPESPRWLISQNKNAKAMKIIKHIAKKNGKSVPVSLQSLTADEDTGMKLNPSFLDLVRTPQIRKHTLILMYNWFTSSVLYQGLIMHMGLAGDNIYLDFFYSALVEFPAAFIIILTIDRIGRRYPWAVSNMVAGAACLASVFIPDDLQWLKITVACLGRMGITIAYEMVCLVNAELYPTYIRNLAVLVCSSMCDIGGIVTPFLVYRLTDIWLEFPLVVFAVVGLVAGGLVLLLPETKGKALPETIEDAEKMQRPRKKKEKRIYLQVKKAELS

T2: Solute carrier family 22 member 1 (Mus musculus, UniProt O08966)
T2 sequence (O08966 whole entry): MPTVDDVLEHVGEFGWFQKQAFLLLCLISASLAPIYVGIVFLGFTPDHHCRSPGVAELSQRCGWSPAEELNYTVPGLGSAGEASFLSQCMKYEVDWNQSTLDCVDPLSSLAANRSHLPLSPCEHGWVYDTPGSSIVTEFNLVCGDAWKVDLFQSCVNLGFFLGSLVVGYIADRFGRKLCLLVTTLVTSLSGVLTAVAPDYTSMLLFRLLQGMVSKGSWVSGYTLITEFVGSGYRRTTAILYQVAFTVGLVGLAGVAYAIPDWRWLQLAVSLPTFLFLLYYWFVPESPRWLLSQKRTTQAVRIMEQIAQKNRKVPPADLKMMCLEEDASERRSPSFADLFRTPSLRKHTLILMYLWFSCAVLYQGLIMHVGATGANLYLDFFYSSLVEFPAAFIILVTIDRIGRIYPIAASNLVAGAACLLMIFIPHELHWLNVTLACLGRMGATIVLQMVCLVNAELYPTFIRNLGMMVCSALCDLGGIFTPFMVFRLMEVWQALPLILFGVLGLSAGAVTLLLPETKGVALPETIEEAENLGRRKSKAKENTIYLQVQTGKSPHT


Columns and labels:
[1] = target: T1, Solute carrier family 22 member 2; assay: (§1) TP_TRANSPORTER: inhibition of MPP+ uptake (MPP+: 1 uM) in Xenopus laevis oocytes; format: functional, cell-based, Oocyte
[2] = target: T2, Solute carrier family 22 member 1; assay: as §1; format: functional, cell-based, Oocyte
[3] = substrate: C[n+]1ccc(-c2ccccc2)cc1; assay: TP_TRANSPORTER: uptake in Xenopus laevis oocytes; format: functional, cell-based, Oocyte
[4] = substrate: CC[N+](CC)(CC)CC; assay: cells, lysate or membranes named

Row | Molecule | IC50 [1] | IC50 [2] | Km [3] | Km [4]
1 | C[N+](C)(C)CCO [CHOLINE] | 217 µM | 55 µM | – | –
2 | CN/C(=N/CCSCc1nc[nH]c1C)NC#N [CIMETIDINE] | 8 µM | 0.59 µM | – | –
3 | C=C[C@H]1C[N@@]2CC[C@H]1C[C@H]2[C@H](O)c1ccnc2ccc(OC)cc12 [QUININE] | 2.8 µM | – | – | –
4 | CNC(=O)c1cccnc1 [NICOTINYL METHYLAMIDE] | 13700 µM | 7340 µM | – | –
5 | CCN(CC)CCNC(=O)c1ccc(N)cc1 [PROCAINAMIDE] | 312 µM | 3.9 µM | – | –
6 | CC[N+](CC)(CC)CC [TETRYLAMMONIUM] | 3.5 µM | 0.54 µM | – | –
7 | Solute carrier family 22 member 2 (Mus musculus) (protein) MPTVDDILEHIGEFHLFQKQTFFLLALLSGAFTPIYVGIVFLGFTPNHHCRSPGVAELSQRCGWSPAEELNYTVPGLGSAGEVSFLSQCMRYEVDWNQSTLDCVDPLSSLAANRSHLPLSPCEHGWVYDTPGSSIVTEFNLVCAHSWMLDLFQSLVNVGFFIGAVGIGYLADRFGRKFCLLVTILINAISGVLMAISPNYAWMLVFRFLQGLVSKAGWLIGYILITEFVGLGYRRTVGICYQIAFTVGLLILAGVAYALPNWRWLQFAVTLPNFCFLLYFWCIPESPRWLISQNKNAKAMKIIKHIAKKNGKSVPVSLQSLTADEDTGMKLNPSFLDLVRTPQIRKHTLILMYNWFTSSVLYQGLIMHMGLAGDNIYLDFFYSALVEFPAAFIIILTIDRIGRRYPWAVSNMVAGAACLASVFIPDDLQWLKITVACLGRMGITIAYEMVCLVNAELYPTYIRNLAVLVCSSMCDIGGIVTPFLVYRLTDIWLEFPLVVFAVVGLVAGGLVLLLPETKGKALPETIEDAEKMQRPRKKKEKRIYLQVKKAELS | – | – | 24 µM | 35.7 µM
8 | Solute carrier family 22 member 1 (Mus musculus) (protein) MPTVDDVLEHVGEFGWFQKQAFLLLCLISASLAPIYVGIVFLGFTPDHHCRSPGVAELSQRCGWSPAEELNYTVPGLGSAGEASFLSQCMKYEVDWNQSTLDCVDPLSSLAANRSHLPLSPCEHGWVYDTPGSSIVTEFNLVCGDAWKVDLFQSCVNLGFFLGSLVVGYIADRFGRKLCLLVTTLVTSLSGVLTAVAPDYTSMLLFRLLQGMVSKGSWVSGYTLITEFVGSGYRRTTAILYQVAFTVGLVGLAGVAYAIPDWRWLQLAVSLPTFLFLLYYWFVPESPRWLLSQKRTTQAVRIMEQIAQKNRKVPPADLKMMCLEEDASERRSPSFADLFRTPSLRKHTLILMYLWFSCAVLYQGLIMHVGATGANLYLDFFYSSLVEFPAAFIILVTIDRIGRIYPIAASNLVAGAACLLMIFIPHELHWLNVTLACLGRMGATIVLQMVCLVNAELYPTFIRNLGMMVCSALCDLGGIFTPFMVFRLMEVWQALPLILFGVLGLSAGAVTLLLPETKGVALPETIEEAENLGRRKSKAKENTIYLQVQTGKSPHT | – | – | 10 µM | –

Source: ChEMBL document CHEMBL2074047, “Functional characterization of mouse cation transporter mOCT2 compared with mOCT1” (Biochem Biophys Res Commun, 2002)
